Assay results published in publication PMC6204601, “In Vivo Selectivity and Localization of Reactive Oxygen Species (ROS) Induction by Osmium Anticancer Complexes That Circumvent Platinum Resistance” (Journal of Medicinal Chemistry, 2018).
Like-named read-outs stand apart in the source and are kept apart here.

Key:
[1] = system: A2780 ovarian carcinoma cells; assay: Sulforhodamine B antiproliferative assay, A2780; type: cell-based, human; settings: SRB
[2] = system: HOF human ovarian fibroblasts; assay: Sulforhodamine B antiproliferative assay, HOF; type: cell-based; settings: 24 h drug exposure + 72 h recovery, SRB; non-cancer fibroblasts
Experimental: (§1) In vitro biological studies
(§2) Sulforhodamine B cell viability colorimetric assay.
(§3) by ICP-OES analysis for metal content).
(§4) 72 h recovery time (310 K).
(§5) using slowly-running tap water and air dried.
(§6) Data were processed using Microsoft Excel

[3] = system: A549 lung carcinoma cells; assay: Sulforhodamine B antiproliferative assay, A549; type: cell-based, human; settings: 24 h drug exposure + 72 h recovery, SRB
[4] = system: MRC5 human lung fibroblasts; assay: Sulforhodamine B antiproliferative assay, MRC5; type: cell-based; settings: 24 h drug exposure + 72 h recovery, SRB; non-cancer fibroblasts
Experimental: as §1, §2, §3, §4, §5, §6
IC50 values (concentrations at which […]
After this time, cells were […]

[5] = system: HCT116 colorectal carcinoma cells; assay: Sulforhodamine B antiproliferative assay, HCT116; type: cell-based, human; settings: 24 h drug exposure + 72 h recovery, SRB; read-out: Antiproliferative activity (IC50) HCT116 Colon
[6] = system: A2780Cis cisplatin-resistant ovarian carcinoma cells; assay: Sulforhodamine B antiproliferative assay, A2780Cis; type: cell-based, human; settings: 24 h drug exposure + 72 h recovery, SRB
[7] = system: HCT116Ox oxaliplatin-resistant colorectal carcinoma cells; assay: Sulforhodamine B antiproliferative assay, HCT116Ox; type: cell-based, human; settings: 24 h drug exposure + 72 h recovery, SRB, read-out: Antiproliferative activity (IC50) HCT116Ox Colon
[8] = system: HCT116p21-/- P21-knockout colorectal carcinoma cells; assay: Sulforhodamine B antiproliferative assay, HCT116p21-/-; type: cell-based, human; settings: 24 h drug exposure + 72 h recovery, SRB, read-out: Antiproliferative activity (IC50) HCT116p21-/- Colon
[9] = system: HCT116p53-/- P53-knockout colorectal carcinoma cells; assay: Sulforhodamine B antiproliferative assay, HCT116p53-/-; type: cell-based, human; settings: 24 h drug exposure + 72 h recovery, SRB, read-out: Antiproliferative activity (IC50) HCT116p53-/- Colon
[10] = system: AB wild-type zebrafish embryos; type: in vivo; settings: 96 h exposure, read-out: LC50 (Danio rerio) AB-WT
[11] = system: Singapore wild-type zebrafish embryos; type: in vivo, Danio rerio; settings: zebrafish embryos, 96 h exposure; read-out: LC50 (Danio rerio) SG-WT
Experimental: In vivo biological studies […]
wild-type zebrafish (SGWT) embryos (< 5 dpf). All animals were maintained in accordance with ASPA […]
maintained. Light cycle: 14 hours day, 10 hours night.
1 L breeding tank. Pairs were set up the previous evening. Males and females were separated by a divider. The divider was removed around 9am (dawn). Embryos were collected and placed into petri dishes with fresh egg water. […]

[12] = system: Tubingen wild-type zebrafish embryos; assay: Zebrafish embryo toxicity (FET) test, TU-WT; type: in vivo; settings: 96 h exposure, read-out: LC50 (Danio rerio) TU-WT
[13] = system: HOF human ovarian fibroblasts; assay: ROS/superoxide detection by flow cytometry, HOF; settings: 24 h, 1.0 × IC50 (pyocyanin positive control 0.1 mM); for % Population Q2 FL1-H+ / FL2-H+: ROS and superoxide; for % Population Q1 FL1-H- / FL2-H+: superoxide only; for % Population Q3 FL1-H+ / FL2-H-: total ROS only
Experimental: Reactive oxygen species (ROS) determination using flow cytometry. The generation of ROS and
superoxide in A2780 ovarian cancer cells was evaluated using the ROS/Superoxide detection kit (Enzo
Life Sciences) following the manufacturer’s protocol.
cells per well, and incubated for 24 h (310 K). After this time, cells were exposed to equipotent
The pellets were re-suspended in 500
μL PBS and stained with green fluorescent reagent for total ROS reading in the FL1-green channel (2
μL) and orange fluorescent reagent for superoxide reading in the FL2-red channel (2 μL). Positive
control samples were treated with pyocyanin (5 μL, 30 min). Single stained positive control samples
were used for compensation purposes. Data were obtained using a Becton Dickson FACScan Flow
Cytometer and processed using FlowJo V10 for Windows.

[14] = system: A2780 cancer cells; assay: ROS/superoxide detection by flow cytometry, A2780; settings: A2780, 24 h, 1.0 × IC50 (pyocyanin positive control 0.1 mM); for % Population Q2 FL1-H+ / FL2-H+: ROS and superoxide; for % Population Q1 FL1-H- / FL2-H+: superoxide only; for % Population Q3 FL1-H+ / FL2-H-: total ROS only
[15] = CV vs Ag/AgCl, 100 mV/s, 10^–3 M, CH3CN; electrochemically reversible
[16] = 24 h drug exposure + 72 h recovery in drug-free medium, read-out: Antiproliferative activity (IC50) A2780 Ovarian

Molecule	IC50 [1, 16] [nM]	IC50 [2] [µM]	IC50 [3] [µM]	IC50 [4] [µM]	IC50 [5] [µM]	IC50 [6] [µM]	IC50 [7] [µM]	IC50 [8] [µM]	IC50 [9] [µM]	LC50 [10] [µM]	LC50 [11] [µM]	LC50 [12] [µM]	also measured
CS(=O)(=O)[N]1[Os][NH][C@H](c2ccccc2)[C@H]1c1ccccc1.Cc1ccc(C(C)C)cc1 [Complex 2, [Os(p-cymene)(Ms-DPEN)]]	30000 ± 2000	> 50	31 ± 1	26 ± 0.4	67 ± 1	39.4 ± 0.6	56 ± 5	71 ± 5	56 ± 6	2.8 ± 0.6	3.5 ± 0.4	2.8 ± 0.5	
Cc1ccc(C(C)C)cc1.[NH-]C(c1ccccc1)C([N-]S(=O)(=O)c1ccc([N+](=O)[O-])cc1)c1ccccc1.[Os+2] (stereo not drawn) [Complex 3, [Os(p-cymene)(Ns-DPEN)]]	19900 ± 500	> 50	27 ± 2	21.9 ± 0.7	67 ± 1	21.1 ± 0.3	64 ± 5	63 ± 4	53 ± 3	3.9 ± 0.3	1.9 ± 0.3		
Cc1ccc(C(C)C)cc1.O=S(=O)(c1ccc(F)cc1)[N]1[Os][NH][C@H](c2ccccc2)[C@H]1c1ccccc1 [Complex 4, [Os(p-cymene)(Fb-DPEN)]]	17000 ± 1000	48 ± 3	31.5 ± 0.4	35 ± 1	49 ± 3	15 ± 2	54 ± 2	70 ± 3	39.4 ± 0.6	3 ± 0.5	0.7 ± 0.2	1.5 ± 0.3	
Cc1ccc(C(C)C)cc1.O=S(=O)(c1ccccc1)[N]1[Os][NH][C@H](c2ccccc2)[C@H]1c1ccccc1 [Complex 5, [Os(p-cymene)(Bs-DPEN)]]	13500 ± 900	19.9 ± 0.9	26.3 ± 0.5	31.3 ± 0.2	49 ± 6	21 ± 1	52 ± 0.8	54.3 ± 0.9	48 ± 2		0.8 ± 0.2	1.5 ± 0.3	
Cc1ccc(S(=O)(=O)[N]2[Os][NH][C@H](c3ccccc3)[C@H]2c2ccccc2)cc1.c1ccc(-c2ccccc2)cc1 [Complex 7, [Os(biphenyl)(Ts-DPEN)]]	6500 ± 300	44 ± 1	22.4 ± 0.7	15.1 ± 0.5	26.1 ± 0.3	25.9 ± 0.7	46.2 ± 0.7	90 ± 1	40 ± 6	3.5 ± 0.8		3.3 ± 0.4	
Cc1ccc(S(=O)(=O)[N]2[Os][NH][C@H](c3ccccc3)[C@H]2c2ccccc2)cc1.c1ccc(-c2cccc(-c3ccccc3)c2)cc1 [Complex 8, [Os(terphenyl)(Ts-DPEN)]]	4400 ± 300	24.3 ± 0.4	25.5 ± 0.3	9.7 ± 0.2	41.2 ± 0.7	10.4 ± 0.5					0.7 ± 0.2		
CN(C)c1ccc(N=Nc2ccccn2)cc1.Cc1ccc(C(C)C)cc1.F[P-](F)(F)(F)(F)F.[Cl][Os+] [Complex 9, [Os(Azpy-NMe2)(p-cymene)Cl]PF6]	1800 ± 100	11.1 ± 0.9	36.6 ± 0.8	7.1 ± 0.2	21.9 ± 0.7	0.37 ± 0.03	5.8 ± 0.7	4 ± 0.3	3.2 ± 0.3	14 ± 2	13.61 ± 0.09	12 ± 1	% Population Q4 FL1-H- / FL2-H- [13]: 15 ± 1%; % Population Q2 FL1-H+ / FL2-H+ [13]: 13.8 ± 0.1%; % Population Q1 FL1-H- / FL2-H+ [13]: 11.7 ± 0.8%; % Population Q3 FL1-H+ / FL2-H- [13]: 60 ± 2%; % Population Q4 FL1-H- / FL2-H- [14]: 0 ± 0%; % Population Q2 FL1-H+ / FL2-H+ [14]: 97.0 ± 0.2%; % Population Q1 FL1-H- / FL2-H+ [14]: 0 ± 0%; % Population Q3 FL1-H+ / FL2-H- [14]: 3.0 ± 0.2%
CN(C)c1ccc(N=Nc2ccccn2)cc1.F[P-](F)(F)(F)(F)F.[Cl][Os+].c1ccc(-c2ccccc2)cc1 [Complex 11, [Os(Azpy-NMe2)(biphenyl)Cl]PF6]	3900 ± 300	27 ± 2	20 ± 1	16.9 ± 0.1	7.2 ± 0.05	16.8 ± 0.2	10 ± 0.9	67 ± 3	28 ± 1	12 ± 1	16.8 ± 0.8	15.8 ± 0.9	
CN(C)c1ccc(N=Nc2ccccn2)cc1.F[P-](F)(F)(F)(F)F.[I][Os+].c1ccc(-c2ccccc2)cc1 [Complex 12, [Os(Azpy-NMe2)(biphenyl)I]PF6]	140 ± 10	0.35 ± 0.02	0.27 ± 0.03	0.42 ± 0.03	0.82 ± 0.09	0.11 ± 0.01	0.33 ± 0.05	0.33 ± 0.02	0.39 ± 0.02	7.7 ± 0.1	6.6 ± 0.4	6.5 ± 0.8	First reduction step potential [15]: ca. −0.4 V
F[P-](F)(F)(F)(F)F.Oc1ccc(N=Nc2ccccn2)cc1.[I][Os+].c1ccc(-c2ccccc2)cc1 [Complex 13, [Os(Azpy-OH)(biphenyl)I]PF6]		0.32 ± 0.09	0.52 ± 0.06	0.22 ± 0.01	0.15 ± 0.01	0.13 ± 0.02	0.14 ± 0.01	0.3 ± 0.01	0.13 ± 0.01	7.4 ± 0.2	8 ± 0.1	7.2 ± 0.2	IC50 ([1]; 24 h drug exposure + 72 h recovery, value in nM, read-out: IC50 in A2780): 140 nM
Cn1c2cccc(=O)c-2nc2ccccc21 [Pyocyanin, pyocyanin, reference compound]													% Population Q4 FL1-H- / FL2-H- [13]: 1.2 ± 0.5%; % Population Q2 FL1-H+ / FL2-H+ [13]: 90 ± 2%; % Population Q1 FL1-H- / FL2-H+ [13]: 8 ± 2%; % Population Q3 FL1-H+ / FL2-H- [13]: 1.2 ± 0.2%; % Population Q4 FL1-H- / FL2-H- [14]: 0.02 ± 0.01%; % Population Q2 FL1-H+ / FL2-H+ [14]: 99 ± 2%; % Population Q1 FL1-H- / FL2-H+ [14]: 0.03 ± 0.02%; % Population Q3 FL1-H+ / FL2-H- [14]: 0.00 ± 0.01%
N.N.O=C([O-])C1(C(=O)[O-])CCC1.[Pt+2] [carboplatin, reference compound]										10 ± 1	5.7 ± 0.9	7.1 ± 0.7	
N.N.[Cl][Pt][Cl] [cisplatin, reference compound]	1200		3.2 ± 0.1	13.5 ± 0.9	5.1 ± 0.3	11.5 ± 0.2	23.4 ± 0.4	9.2 ± 0.5	36.7				
[Os(p-cymene)(SRB-DPEN)] [Complex 6]	18000 ± 3000		16.8 ± 0.2		40.6 ± 0.1	27.2 ± 0.4	35 ± 1	43 ± 3	34 ± 3				
